Test results published in patent US9555029B2 (HIKMA PHARMACEUTICALS, priority 2013, dated 2017).
Where two headings read alike, the source gives them in different places.

Experiments:
[1] = Colchicine pharmacokinetics coadministered with fluconazole
Experimental: The inhibitor dosage form was an oral 200 mg tablet of Diflucan® (fluconazole, from Pfizer).
The fluconazole trial differed from the Example 2 protocol as follows.

[2] = cited from earlier work; for Kel / T1/2el: arithmetic mean; for AUCT / Cmax: geometric mean
[3] = cited from earlier work; for Kel / T1/2el: arithmetic mean
[4] = cited from earlier work
[5] = cited from earlier work; for AUCT / Cmax: geometric mean
[6] = not given; remark: listed apart in the source
[7] = Incidence of adverse effects for colchicine coadministered with voriconazole
Experimental: Safety was evaluated through assessment of adverse events, standard laboratory evaluations, physical examination (including vital signs) and ECG. Safety was determined by descriptive statistics.

[8] = Treatment-1 (day 1): colchicine 0.6 mg alone, fasted, fluconazole study, mean
[9] = Treatment-2 (day 9): colchicine 0.6 mg + fluconazole 200 mg after double dose day 4, once daily days 5-8, fasted, mean
[10] = co-administration of fluconazole vs colchicine alone
[11] = of 12 subjects, cimetidine study
[12] = of 12 subjects, colchicine + cimetidine
[13] = Treatment-1: colchicine 0.6 mg alone (day 1, fasted), cyclosporine study
[14] = Treatment-2: colchicine 0.6 mg + cyclosporine 100 mg once (day 15)
[15] = Treatment-1: colchicine 0.6 mg alone (day 1, fasted), verapamil ER study
[16] = Treatment-1: colchicine 0.6 mg alone (day 1, fasted), verapamil ER study, geometric mean
[17] = Treatment-2: colchicine 0.6 mg (day 19) + verapamil ER 240 mg once daily (days 15-19)
[18] = Treatment-1: colchicine 0.6 mg alone (day 1, fasted), ketoconazole study, arithmetic mean
[19] = Treatment-1: colchicine 0.6 mg alone (day 1, fasted), ketoconazole study
[20] = Treatment-2: colchicine 0.6 mg (day 19) + ketoconazole 200 mg twice daily
[21] = of 12 subjects, colchicine + propafenone
[22] = of 12 subjects, propafenone study
[23] = of 12 subjects, colchicine + voriconazole
[24] = of 12 subjects, voriconazole study

COc1cc2c(c(OC)c1OC)-c1ccc(OC)c(=O)cc1[C@@H](NC(C)=O)CC2 [Colchicine, (S)N-(5,6,7,9-tetrahydro-1,2,3,10-tetramethoxy-9-oxobenzo[alpha]heptalen-7-yl)acetamide]
AUCT/∞ [1, 8]: 85.33% | Kel [1, 8]: 0.0206 h⁻¹ | T1/2el [1, 8]: 34.05 h | AUCT/∞ [1, 9]: 83.54% | Kel [1, 9]: 0.0204 h⁻¹ | T1/2el [1, 9]: 34.51 h | Increase of mean Cmax for colchicine [1, 10]: 13% | Increase of overall exposure of colchicine (AUC) [1, 10]: 40% | CL/F ([1]; male, human, in vivo, 0.6 mg): 610 mL/min | Tmax ([1]; male, human, in vivo, 0.6 mg): 1.25 h | Vd/F ([1]; male, human, in vivo, 0.6 mg): 1810 L | AUC(0-t) ([1]; male, human, in vivo, 0.6 mg, AUCT GEOMETRIC LSMEANS, Treatment-1: colchicine 0.6 mg alone, fluconazole study): 14.5 ng·h/mL | AUC(0-t) ([1]; male, human, in vivo, 0.6 mg, AUCT, Treatment-1 (day 1): colchicine 0.6 mg alone, fasted, fluconazole study, mean): 14.9 ng·h/mL | AUC(0-inf) ([1]; male, human, in vivo, 0.6 mg, AUC∞ GEOMETRIC LSMEANS, Treatment-1: colchicine 0.6 mg alone, fluconazole study): 17 ng·h/mL | AUC(0-inf) ([1]; male, human, in vivo, 0.6 mg, AUC∞, Treatment-1 (day 1): colchicine 0.6 mg alone, fasted, fluconazole study, mean): 17.5 ng·h/mL | Cmax ([1]; male, human, in vivo, 0.6 mg, Cmax GEOMETRIC LSMEANS, Treatment-1: colchicine 0.6 mg alone, fluconazole study): 1.81 ng/mL | Cmax ([1]; male, human, in vivo, 0.6 mg, Cmax, Treatment-1 (day 1): colchicine 0.6 mg alone, fasted, fluconazole study, mean): 1.93 ng/mL | AUC(0-t) ([1]; male, human, in vivo, AUCT GEOMETRIC LSMEANS, Treatment-2: colchicine 0.6 mg + fluconazole): 20.4 ng·h/mL | AUC(0-t) ([1]; male, human, in vivo, AUCT, Treatment-2 (day 9): colchicine 0.6 mg + fluconazole 200 mg after double dose day 4, once daily days 5-8, fasted, mean): 21.3 ng·h/mL | AUC(0-inf) ([1]; male, human, in vivo, AUC∞ GEOMETRIC LSMEANS, Treatment-2: colchicine 0.6 mg + fluconazole): 24.4 ng·h/mL | AUC(0-inf) ([1]; male, human, in vivo, AUC∞, Treatment-2 (day 9): colchicine 0.6 mg + fluconazole 200 mg after double dose day 4, once daily days 5-8, fasted, mean): 25.6 ng·h/mL | Cmax ([1]; male, human, in vivo, Cmax GEOMETRIC LSMEANS, Treatment-2: colchicine 0.6 mg + fluconazole): 2.05 ng/mL | Cmax ([1]; male, human, in vivo, Cmax, Treatment-2 (day 9): colchicine 0.6 mg + fluconazole 200 mg after double dose day 4, once daily days 5-8, fasted, mean): 2.3 ng/mL | Number of adverse events requiring medication after Treatment-1 (cimetidine study): None | Number of serious adverse events or deaths (cimetidine study): None | Total number of adverse events after Treatment-1 (cimetidine study): 11 | Total number of adverse events after Treatment-2 (colchicine + cimetidine): 2 | Number of subjects experiencing adverse events after Treatment-1 [11]: 7 | Percent of subjects experiencing adverse events after Treatment-1 [11]: 58.3% | Number of subjects experiencing adverse events after Treatment-2 [12]: 1 | Percent of subjects experiencing adverse events after Treatment-2 [12]: 8.3% | Kel [2, 13]: 0.147 h⁻¹ | T1/2el [2, 13]: 6.777 h | CLTOT/F [2, 13]: 48.24 L/h | AUCT [2, 13]: 12,555 pg · h/mL | Cmax [2, 13]: 2,720 pg/mL | Kel [2, 14]: 0.038 h⁻¹ | T1/2el [2, 14]: 20.65 h | CLTOT/F [2, 14]: 13.42 L/h | AUCT [2, 14]: 29,830 pg · h/mL | Cmax [2, 14]: 8,820 pg/mL | Kel [3, 15]: 0.1409 h⁻¹ | T1/2el [3, 15]: 4.3 h | CLTOT/F [3, 15]: 43.93 L/h | AUCT [3, 16]: 13,090 pg · h/mL | Cmax [3, 16]: 2,970 pg/mL | Kel [3, 17]: 0.0480 h⁻¹ | T1/2el [3, 17]: 17.17 h | CLTOT/F [3, 17]: 21.01 L/h | Cmax ([3]; Treatment-2: colchicine 0.6 mg (day 19) + verapamil ER 240 mg once daily (days 15-19), geometric mean): 3,850 pg/mL | Colchicine passing unchanged in the urine ([4]; in vivo): up to 20% | Time to peak concentrations in the blood ([4]; oral, patients with normal organ function): ≤ 2 h | Kel [5, 18]: 0.1491 h⁻¹ | T1/2el [5, 18]: 6.28 h | CLTOT/F [5, 19]: 49.3 L/h | AUCT [5, 19]: 11,990 pg · h/mL | Cmax [5, 19]: 2,780 pg/mL | T1/2el ([5]; Treatment-2: colchicine 0.6 mg (day 19) + ketoconazole 200 mg twice daily, arithmetic mean): 26.06 h | CLTOT/F [5, 20]: 14.8 L/h | AUCT [5, 20]: 34,380 pg · h/mL | Cmax [5, 20]: 5,270 pg/mL | Total number of adverse events after Treatment-2 ([6]; colchicine + propafenone): 1 | Number of subjects experiencing adverse events after Treatment-2 [6, 21]: 1 | Percent of subjects experiencing adverse events after Treatment-2 [6, 21]: 8.3% | Number of subjects experiencing adverse events after Treatment-1 [6, 22]: 9 | Percent of subjects experiencing adverse events after Treatment-1 [6, 22]: 75.0% | Number of adverse events requiring medication after Treatment-1 ([6]; propafenone study): None | Number of serious adverse events or deaths ([6]; propafenone study): None | Total number of adverse events after Treatment-1 ([6]; propafenone study): 19 | Total number of adverse events after Treatment-2 ([7]; colchicine + voriconazole): 2 | Number of subjects experiencing adverse events after Treatment-2 [7, 23]: 1 | Percent of subjects experiencing adverse events after Treatment-2 [7, 23]: 8.3% | Number of subjects experiencing adverse events after Treatment-1 [7, 24]: 7 | Percent of subjects experiencing adverse events after Treatment-1 [7, 24]: 58.3% | Number of adverse events requiring medication after Treatment-1 ([7]; voriconazole study): None | Number of serious adverse events or deaths ([7]; voriconazole study): None | Total number of adverse events after Treatment-1 ([7]; voriconazole study): 20
